This is an account of results in ChEMBL document CHEMBL4673309, “Synthesis and anticancer activity of new coumarin-3-carboxylic acid derivatives as potential lactatetransportinhibitors” (Bioorg Med Chem, 2021).

The test system of data set [1] is NCM460. In words: Cytotoxicity against human NCM460 cells harboring low MCT1 expression incubated for 72 hrs by MTT assay. In kind it is cell-based. The conditions noted are these: ncm460, 72 h.
Data set [2] concerns HCT-116. The data set can be described thus: Cytotoxicity against human HCT-116 cells overexpressing MCT-1 assessed as reduction in cell viability measured after 72 hrs by MTT assay. In kind it is functional, cell-based. The conditions noted are these: HCT-116, 72 h.
In data set [3] the test system is HeLa. The data set can be described thus: Cytotoxicity against human HeLa cells overexpressing MCT-1 assessed as reduction in cell viability measured after 72 hrs by MTT assay. It counts as functional, cell-based.
Data set [4] has as its system HeLa. In words: Antiproliferative activity against human HeLa cells assessed as reduction in cell proliferation at IC50 incubated for 6 days and measured on day 6 by MTS assay. In kind it is functional, cell-based. The conditions noted are these: time 6.0 day.
The test system of data set [5] is HeLa. In words: Induction of apoptosis in human HeLa cells assessed as early apoptosis measured after 48 hrs by annexinV-FITC/propidium iodide staining based by flow cytometry (reference value: 2.94 %). In kind it is functional.
Data set [6] deals with HeLa. In words: Induction of apoptosis in human HeLa cells assessed as late apoptotic cells measured after 48 hrs by annexinV-FITC/propidium iodide staining based by flow cytometry (reference value: 3.85 %). It counts as functional.
The test system of data set [7] is HCT-116. The data set can be described thus: Induction of apoptosis in human HCT-116 cells assessed as early apoptosis measured after 48 hrs by annexinV-FITC/propidium iodide staining based by flow cytometry (reference value: 3.42 %). In kind it is functional.
Data set [8] deals with HCT-116. In words: Induction of apoptosis in human HCT-116 cells assessed as late apoptotic cells measured after 48 hrs by annexinV-FITC/propidium iodide staining based by flow cytometry (reference value: 2.78 %). In kind it is functional.
Data set [9] relates to HeLa. In words: Reduction of lactate production in human HeLa cells at IC50 after 8 hrs by colorimetric assay. In kind it is functional, cell-based.
The test system of data set [10] is HCT-116. In words: Decrease in glucose consumption in human HCT-116 cells at IC50 after 4 to 24 hrs by glucose oxidase based colorimetric assay. It counts as functional, cell-based. The following applies: time 4-24 hrs.
The subject of data set [11] is HCT-116. In words: Reduction of lactate production in human HCT-116 cells at IC50 after 4 to 24 hrs by colorimetric assay. The following applies: time 4-24 hrs. In kind it is functional, cell-based.
Data set [12] relates to HeLa. The data set can be described thus: Decrease in intracellular glucose level in human HeLa cells at IC50 after 4 hrs by colorimetric assay. In kind it is functional, cell-based.
For data set [13], the system named is HeLa. The data set can be described thus: Inhibition of lactate transport in human HeLa cells assessed as increase in intracellular lactate level at IC50 measured after 8 to 24 hrs by colorimetric assay. The following applies: time 8-24 hrs. It counts as functional, cell-based.
Data set [14] has as its system HCT-116. The data set can be described thus: Antiproliferative activity against human HCT-116 cells assessed as reduction in cell proliferation at IC50 incubated for 6 days and measured on day 6 by MTS assay. The following applies: time 6.0 day. It counts as functional, cell-based.
Data set [15] has as its system HeLa. In words: Downregulation of MCT1 expression in human HeLa cells at 0.01 to 100 uM measured after 48 hrs by Western blot analysis. It counts as functional, cell-based. The following applies: dose 0.01-100 µM.
The test system of data set [16] is HCT-116. In words: Downregulation of MCT1 expression in human HCT-116 cells at 0.01 to 100 uM measured after 48 hrs by Western blot analysis. In kind it is functional, cell-based. The following applies: dose 0.01-100 µM.
For data set [17], the system named is HeLa. In words: Decrease in glucose consumption in human HeLa cells at IC50 after 12 hrs by glucose oxidase based colorimetric assay. In kind it is functional, cell-based.
The subject of data set [18] is HeLa. In words: Decrease in intracellular glucose level in human HeLa cells at IC50 after 24 hrs by colorimetric assay. It counts as functional, cell-based.
Data set [19] concerns HCT-116. The data set can be described thus: Decrease in intracellular glucose level in human HCT-116 cells at IC50 after 24 hrs by colorimetric assay. It counts as functional, cell-based.
Data set [20] relates to HCT-116. In words: Decrease in intracellular glucose level in human HCT-116 cells at IC50 after 4 hrs by colorimetric assay. In kind it is functional, cell-based.
Data set [21] relates to HCT-116. In words: Inhibition of lactate transport in human HCT-116 cells assessed as increase in intracellular lactate level at IC50 measured after 8 hrs by colorimetric assay. In kind it is functional, cell-based.
Data set [22] relates to HCT-116. The data set can be described thus: Inhibition of lactate uptake in human HCT-116 cells at 0.01 to 100 uM after 24 hrs by colorimetric assay. It counts as functional, cell-based. The following applies: dose 0.01-100 µM.
Data set [23] relates to HeLa. The data set can be described thus: Inhibition of lactate uptake in human HeLa cells at low concentration after 24 hrs by colorimetric assay. It counts as functional, cell-based.
For data set [24], the system named is HeLa. The data set can be described thus: Inhibition of lactate uptake in human HeLa cells at high concentration after 24 hrs by colorimetric assay. In kind it is functional, cell-based.

The source made the active and inactive calls. The rule behind the calls is not given here.

With `O=C(NCCNC(=O)c1cc2ccc(OCc3cccc(Br)c3)cc2oc1=O)c1cc2ccc(OCc3cccc(Br)c3)cc2oc1=O`, the Activity result in [1] was “Non-Toxic”. Further, the IC50 stood at 11.6 µM in [2] and 5.52 µM in [3].
For `NNC(=O)c1cc2ccc(OCc3cccc(Br)c3)cc2oc1=O` the same measures were “Non-Toxic”, above 100 µM and above 100 µM.
Take `CCN(CC)c1ccc2cc(C(=O)N/N=C(/C)c3cccnc3)c(=O)oc2c1`: the Activity entry in data set [1] is “Non-Toxic”. Moreover, the figures for the IC50 in data set [2] and in data set [3] were above 100 µM and 70 µM, respectively.
For `CCN(CC)c1ccc2cc(C(=O)NC3CC3)c(=O)oc2c1`, in data set [1], the Activity result was “Non-Toxic”. Further, the IC50 in data set [2] and in data set [3] was above 100 µM throughout.
As to `O=C(NO)c1cc2ccc(OCc3ccccc3)cc2oc1=O`, the Activity result in [1] is given as “Non-Toxic”. Also, the IC50 in data set [2] amounted to 39.5 µM; in data set [3], 31.8 µM.
As for `O=C(NCCO)c1cc2ccc(OCc3ccc([N+](=O)[O-])cc3)cc2oc1=O`, the Activity entry in data set [1] was “Non-Toxic”. The IC50 in data set [2] was 33.4 µM; in data set [3], 6.89 µM.
The corresponding values for `CCN(CC)c1ccc2cc(C(=O)N/N=C(/C)c3cccs3)c(=O)oc2c1` are “Non-Toxic”, above 100 µM and above 100 µM.
For `O=C(NCCNC(=O)c1cc2ccc(OCc3ccccc3)cc2oc1=O)c1cc2ccc(OCc3ccccc3)cc2oc1=O` the same measures were “Non-Toxic”, 15.9 µM and 12.1 µM.
With `CCN(CC)c1ccc2cc(C(=O)NC(C)C)c(=O)oc2c1`, in [1], the Activity entry is given as “Non-Toxic”. In addition, the IC50 in [2] was above 100 µM; in data set [3] it was 73 µM.
For `CCCOc1ccc2cc(C(=O)NCCO)c(=O)oc2c1` the same measures were “Non-Toxic”, above 100 µM and 22.6 µM.
For `O=C(Nc1ccccc1)c1cc2ccc(OCc3ccccc3)cc2oc1=O`, in [1], the Activity entry was “Non-Toxic”. Also, the IC50 in data set [2] and in data set [3] was above 100 µM in each case.
On to `CCOc1ccc2cc(C(=O)NCCO)c(=O)oc2c1`, for which, in data set [1], the Activity entry is recorded as “Non-Toxic”. Besides, the IC50 in [2] and in data set [3] was above 100 µM each time.
For the molecule `O=C(NCCO)c1cc2ccc(OCc3ccccc3)cc2oc1=O`, the Activity entry in data set [1] is given as “Non-Toxic”. Also, the IC50 in data set [2] turned out to be 18.7 µM; in data set [3], 14.2 µM.
For the molecule `O=C(NCCNC(=O)c1cc2ccc(OCc3ccc([N+](=O)[O-])cc3)cc2oc1=O)c1cc2ccc(OCc3ccc([N+](=O)[O-])cc3)cc2oc1=O`, in data set [1], the Activity result is “Non-Toxic”. The IC50 was 68.1 µM in [2] and 13.9 µM in data set [3].
The corresponding values for `CCN(CC)c1ccc2cc(C(=O)NCCO)c(=O)oc2c1` are “Non-Toxic”, above 100 µM and above 100 µM.
As for `NNC(=O)c1cc2ccc(OCc3ccc([N+](=O)[O-])cc3)cc2oc1=O`, the Activity result in [1] is given as “Non-Toxic”. In addition, the half-maximal inhibitory concentration (IC50) in data set [2] and in [3] was above 100 µM each time.
`CCN(CC)c1ccc2cc(C(=O)NO)c(=O)oc2c1`: the Activity entry in data set [1] is reported as “Non-Toxic”. Also, the IC50 amounted to 37.6 µM in data set [2] and 35.9 µM in data set [3].
Take `N#C/C(=C\c1ccc(O)cc1)C(=O)O` [alpha-CYANO-4-HYDROXYCINNAMIC ACID]: the Activity entry in [1] is “Non-Toxic”; in [5], 8.8%; in data set [6], 13.6%; in data set [7], 2.07%; in data set [8], 9.36%. For the same molecule, the IC50 in data set [2] is 1650 µM; in [3], 2140 µM. For the same molecule, in data set [4], the outcome was Active. Moreover, the inhibition entry in data set [9], in data set [10], in data set [11], in [12] and in [13] was “Active” throughout.
As to `CCN(CC)c1ccc2cc(C(=O)NN)c(=O)oc2c1`, the Activity entry in data set [1] is listed as “Non-Toxic”; in data set [5] it was 5.28%; in data set [6], 6.47%; in data set [7] it was 2.52%; in data set [8], 5.94%. The IC50 came out at 3.36 µM in data set [2] and 5.48 µM in data set [3]. For the same molecule, the result in data set [4] and in data set [14] was Active. Moreover, the inhibition entry in data set [15], in data set [16], in [17], in data set [9], in data set [10] and in [11] was “Active” throughout. Further, the inhibition result in data set [18], in data set [20], in data set [13], in data set [21], in data set [22] and in [23] was “Active” in each case. The inhibition entry in [19] and in data set [24] was “inactive” each time.
With `O=C(NCCO)c1cc2ccc(OCc3cccc(Br)c3)cc2oc1=O`, the Activity entry in data set [1] was “Non-Toxic”. Also, the IC50 was 30.8 µM in data set [2] and 17.6 µM in [3].
On to `O=c1c(O)c(-c2ccc(O)c(O)c2)oc2cc(O)cc(O)c12` [QUERCETIN], for which the Activity entry was “Non-Toxic” in data set [1]; 4.92% in data set [5]; 14.2% in [6]; 5.35% in data set [7]; 10.3% in data set [8]. For the same molecule, the IC50 was found to be 43.9 µM in [2] and 22.5 µM in [3]. The outcome in data set [14] was Active. The inhibition entry in data set [9], in data set [10], in [11], in data set [12] and in data set [13] was “Active” each time.
On to `CCCOc1ccc2cc(C(=O)NN)c(=O)oc2c1`, for which the Activity result in [1] is “Non-Toxic”. Further, the IC50 is 69.8 µM in [2] and above 100 µM in data set [3].
The corresponding values for `CCOc1ccc2cc(C(=O)NN)c(=O)oc2c1` are “Non-Toxic”, above 100 µM and 38.3 µM.
Regarding `NNC(=O)c1cc2ccc(OCc3ccccc3)cc2oc1=O`, the Activity result in data set [1] is “Non-Toxic”. Besides, the IC50 in data set [2] and in data set [3] was above 100 µM throughout.
